Results: patent US4226857A, “Synthetic peptides having pituitary growth hormone releasing activity” (priority 1979, dated 1980)
Square brackets hold non-standard residues; d marks the D form. Peptide text beside a SMILES is read from it.

Tested on: pituitaries
Experiment: In vitro growth hormone release study (rat pituitary incubation, GH radioimmunoassay)
Type: cell-based
Conditions: pituitaries of 20 day old female rats, Δ of GH levels between I3, I4 and P2, ± SEM
Protocol: Female rats of the CD-1 strain were housed in a constant temperature room at 24° C. with 14 hours light and 10 hours darkness. The rats were fed Purina brand rat chow ab libitum.
All studies were started between 0800 and 1000 hours.
Pituitaries were removed from 20 day old female rats. Two pituitaries were incubated at 36° C. in 1 ml of lactated Ringer's solution in 10 ml polytetrafluoroethylene beakers in a Dubnoff Shaker (90 cycles/min.). The pituitaries were incubated a total of 4 hours (P1, P2, I3, and I4). After two successive one hour preincubation periods (P1, P2), the peptide was added to the incubation medium hourly for 2 hours (I3, I4).
This in vitro study was performed in triplicate and a standard radioimmunoassay of growth hormone present in the incubation medium was performed in duplicate. The hormonal activity was calculated as the difference (Δ) of growth hormone (GH) levels between I3, I4 and P2, i.e., (I3 -P2) and (I4 -P2). P values were calculated by Students' t test using six growth hormone values for each value recorded.
The growth hormone radioimmunoassay reagents were distributed by the National Institute of Arthritis and […] (NIAMDD) program. The growth hormone values were calculated in terms of nanograms (ng) of a rat standard with a growth hormone potency of 0.61 units/mg.

[1] = peptide 0.1μg, P <0.001 unless otherwise noted

Structure (SMILES) | In vitro growth hormone release (ΔGH) [1] | In vitro growth hormone release (ΔGH) (peptide 1μg, P <0.001) | In vitro growth hormone release (ΔGH) (peptide 10μg, P <0.001) | In vitro growth hormone release (ΔGH) (peptide 0.3μg, P <0.001)
NC(=O)[C@@H](Cc1ccccc1)NC(=O)[C@H](Cc1c[nH]c2ccccc12)NC(=O)[C@H](CO)NC(=O)[C@@H](Cc1c[nH]c2ccccc12)NC(=O)[C@@H](N)Cc1ccc(O)cc1 [H2 N--Tyr--D-Trp--Ser--Trp--D-Phe--CONH2, H2 N-Tyr-D-Trp-Ser-Trp-D-Phe-CONH2] (H-Y[dW]SW[dF]-NH2) | 353 ± 144 ngΔGH/ml incubation medium | 3119 ± 413 ngΔGH/ml incubation medium | 3831 ngΔGH/ml incubation medium | –
C[C@H](NC(=O)[C@@H](Cc1c[nH]c2ccccc12)NC(=O)[C@@H](N)Cc1ccc(O)cc1)C(=O)N[C@@H](Cc1c[nH]c2ccccc12)C(=O)N[C@H](Cc1ccccc1)C(N)=O [H2 N--Tyr--D-Trp--Ala--Trp--D-Phe--CONH2, H2 N-Tyr-D-Trp-Ala-Trp-D-Phe-CONH2] (H-Y[dW]AW[dF]-NH2) | 3409 ± 455 ngΔGH/ml incubation medium | 4611 ± 510 ngΔGH/ml incubation medium | 5000 ± 662 ngΔGH/ml incubation medium | 4540 ± 1200 ngΔGH/ml incubation medium
